Measurements reported in patent US7217802B2, “Method and kit for detecting, or determining, 3,4-methylenedioxymethamphetamine” (Randox Laboratories Limited, priority 2001, dated 2007).
In brackets after ≈: the same amount, converted by molar mass. Where two headings read alike, the source gives them in different places.

Tests used:
[1] = test system: Cedia DAU; conditions: cited from earlier work
[2] = test system: Emit II Plus Monoclonal; conditions: cited from earlier work
[3] = test system: antiserum raised to immunogen 7 (IgG fraction); experiment: MDMA competitive ELISA (microtiter plate); assay type: binding, sheep; conditions: for IC50 / % CR (cross-reactivity = IC50MDMA/IC50CR x 100): Hapten 7-HRP; for % CR (cross-reactivity = IC50MDMA/IC50CR x 100): relative to MDMA 100; for level of cross-reactivity of the MDMA assays (in words): summary of Table 2
Method: An aqueous solution of the immunogen prepared in Example 8 was formulated with Freund's Complete Adjuvant (FCA) to form an emulsion consisting of 2 mg/ml immunogen in 50% (v/v) FCA. Two sheep were immunised with this emulsion, 0.25 ml being subcutaneously injected at each of 4 sites in the flank of each animal. Subsequent immunisations (boosts) contained 1 mg/ml immunogen emulsified in 50% (v/v) Freund's Incomplete Adjuvant (FIA) and were administered in the same manner at monthly intervals for 1 year. Blood sampling took place 7 to 14 days after each boost. Each sample was processed to produce antiserum that was further purified by caprylic acid and ammonium sulfate precipitation to yield an immunoglobulin G (IgG) fraction. The IgG fraction was evaluated by competitive microtiter plate assay, as described below.
The wells of an enhanced binding 96 well polystyrene microtiter plate were coated with the IgG fraction of the antiserum raised to Immunogen 7 (Example 8), diluted in 10 mM Tris, pH8.5 (125 μl/well). The appropriate antibody coating dilution was determined using standard ELISA chequerboard techniques. The plate was incubated for 2 hours at 37° C., washed 4 times with Tris buffered saline containing Tween 20 (TBST) and tapped dry. Standard solutions of MDMA were prepared in TBST at 0, 1, 10, 50, 100, 250, 500 and 1000 ng/ml and 25 μl of each was added to the appropriate wells (FIG. 2). Conjugates (detection reagents)-hapten 7-HRP (Example 9) and hapten 10-HRP (Example 12)—were diluted in Tris buffer, pH7.2, containing EDTA, D-mannitol, sucrose, thimerosal and BSA, appropriate dilutions being determined by standard ELISA chequerboard techniques, and 100 μl of each was added to the appropriate wells (FIG. 2). The plate was incubated at 37° C. for 2 hours. Excess unbound conjugate was removed by washing 6 times over a 10 minute period with TBST.
125 μl of tetramethylbenzidine (TMB) substrate solution was added to each well of the plate which was then incubated for 15 to 20 minutes in the dark at room temperature. The reaction was terminated by addition of 125 μl 0.2 M H2SO4 to each well. The absorbance was then measured at 450 nm using a microtiter plate reader.
In order to determine the specificity of the MDMA competitive ELISAs, standard solutions of potential cross-reactants MDEA, MDA, d-amphetamine, (+)-methamphetamine, (+)-ephedrine, (−)-ephedrine, (+)-pseudoephedrine, (−)-pseudoephedrine and 1-amphetamine were prepared in TBST at 0, 500, 1000, 5000, 10000, 25000, 50000 and 100000 ng/ml. Employing each series of standards in the MDMA competitive ELISAs, calibration curves were generated and these were used to determine the cross-reactivity of the immunoassays with these drugs. The results of this study are presented in Table 2, cross-reactivity being calculated according to the following formula: % CR=IC50MDMA/IC50CR×100
Where % CR is the percentage cross-reactivity, IC50MDMA is the concentration of MDMA that causes 50% displacement of signal and IC50CR is the concentration of potential cross-reactant, for which % CR is being evaluated, that causes 50% displacement of signal.

[4] = test system: Cozart Methamphetamine and MDMA; conditions: cited from earlier work; for cross-reactivity, Cozart Methamphetamine and MDMA: recalculated relative to 100% for MDMA
[5] = test system: Cozart methamphetamine EIA; conditions: cited from earlier work; for cross-reactivity, Cozart Methamphetamine: recalculated relative to 100% for MDMA; for cross-reactivity, Cozart methamphetamine EIA: compared to 100% for methamphetamine
[6] = test system: Cozart MDMA EIA; conditions: cited from earlier work; for cross-reactivity, Cozart MDMA: recalculated relative to 100% for MDMA; for cross-reactivity, Cozart MDMA EIA: compared to 100% for MDMA
[7] = test system: Cozart Amphetamine; conditions: recalculated relative to 100% for MDMA; cited from earlier work
[8] = in vivo; cited from earlier work
[9] = recalculated relative to 100% for MDMA

## CC(N)Cc1ccccc1 (racemic) [D,L-Amphetamine]
[1]; [9]
  cross-reactivity, CEDIA: 84.1%
[2]; [9]
  cross-reactivity, Emit: 545.6%

## CN[C@@H](C)Cc1ccccc1 (racemic) [D,L-Methamphetamine]
[1]; [9]
  cross-reactivity, CEDIA: 94.25%
[2]; [9]
  cross-reactivity, Emit: 699.7%

## CN[C@H](C)[C@@H](O)c1ccccc1 [(+)-Ephedrine]
[3]; Trial 1
  IC50: >100 µg/mL
  % CR (cross-reactivity = IC50MDMA/IC50CR x 100): <0.017%

## CN[C@@H](C)[C@H](O)c1ccccc1 [(−)-Ephedrine]
[3]; Trial 1
  IC50: >100 µg/mL
  % CR (cross-reactivity = IC50MDMA/IC50CR x 100): <0.017%

## C[C@H](N)Cc1ccccc1 [D-Amphetamine]
[4]
  cross-reactivity, Cozart Methamphetamine and MDMA: 1.52%
[5]
  cross-reactivity, Cozart Methamphetamine: 1%
[6]
  cross-reactivity, Cozart MDMA: 0.2–0.43%
[3]; Trial 1
  IC50: 52.199 µg/mL (≈ 386 µM)
  % CR (cross-reactivity = IC50MDMA/IC50CR x 100): 0.03%
[3]
  level of cross-reactivity of the MDMA assays (in words): very low levels of cross-reactivity
[7]
  cross-reactivity, Cozart Amphetamine: 1,428%
[1]; [9]
  cross-reactivity, CEDIA: 146.5%
[2]; [9]
  cross-reactivity, Emit: 917%

## CN[C@@H](C)Cc1ccccc1 [D-Methamphetamine]
[4]
  cross-reactivity, Cozart Methamphetamine and MDMA: 217%
[5]
  cross-reactivity, Cozart Methamphetamine: 10%
[6]
  cross-reactivity, Cozart MDMA EIA: 52–80%
  cross-reactivity, Cozart MDMA: 52–80%
[3]; Trial 1
  IC50: 11.138 µg/mL (≈ 74.6 µM)
  % CR (cross-reactivity = IC50MDMA/IC50CR x 100): 0.15%
[3]
  level of cross-reactivity of the MDMA assays (in words): very low levels of cross-reactivity
[1]; [9]
  cross-reactivity, CEDIA: 145%

## C[C@@H](N)Cc1ccccc1 [L-Amphetamine]
[3]; Trial 2
  IC50: >30 µg/mL
  % CR (cross-reactivity = IC50MDMA/IC50CR x 100): <0.1%
[1]; [9]
  cross-reactivity, CEDIA: 4.35%
[2]; [9]
  cross-reactivity, Emit: 120.13%

## CN[C@H](C)Cc1ccccc1 [L-Methamphetamine]
[6]
  cross-reactivity, Cozart MDMA: 4–22%
[1]; [9]
  cross-reactivity, CEDIA: 17.4%
[2]; [9]
  cross-reactivity, Emit: 378.7%

## CCC(Cc1ccc2c(c1)OCO2)NC (centres unmarked) [MBDB, N-methyl-1-(3,4-methylenedioxyphenyl)-2-butamine]
[4]
  cross-reactivity, Cozart Methamphetamine and MDMA: 319–334.2%
[5]
  cross-reactivity, Cozart methamphetamine EIA: 150–200%
  cross-reactivity, Cozart Methamphetamine: 15–20%
[6]
  cross-reactivity, Cozart MDMA EIA: 10.4–20%
  cross-reactivity, Cozart MDMA: 10.4–20^ %

## CC(N)Cc1ccc2c(c1)OCO2 (centres unmarked) [MDA, 3,4-methylenedioxyamphetamine]
[4]
  cross-reactivity, Cozart Methamphetamine and MDMA: 0.87%
[5]
  cross-reactivity, Cozart Methamphetamine: 0.36%
[6]
  cross-reactivity, Cozart MDMA: 0.3–0.74%
[3]; Trial 1
  IC50: 0.3 µg/mL (≈ 1.67 µM)
  % CR (cross-reactivity = IC50MDMA/IC50CR x 100): 5.7%
[3]
  level of cross-reactivity of the MDMA assays (in words): lower levels of cross-reactivity
[7]
  cross-reactivity, Cozart Amphetamine: 208488–304164%
[1]; [9]
  cross-reactivity, CEDIA: 2.76%
[2]; [9]
  cross-reactivity, Emit: 430.1%

## CCNC(C)Cc1ccc2c(c1)OCO2 (centres unmarked) [MDEA, 3,4-methylenedioxyethylamphetamine]
[4]
  cross-reactivity, Cozart Methamphetamine and MDMA: 10.85%
[5]
  cross-reactivity, Cozart methamphetamine EIA: 50–100%
  cross-reactivity, Cozart Methamphetamine: 5–10%
[6]
  cross-reactivity, Cozart MDMA: 7.0–13.0%
[3]; Trial 2
  IC50: 0.015 µg/mL (≈ 0.0724 µM)
  % CR (cross-reactivity = IC50MDMA/IC50CR x 100): 200%
[3]
  level of cross-reactivity of the MDMA assays (in words): high levels of cross-reactivity
[7]
  cross-reactivity, Cozart Amphetamine: 228.5%

## CNC(C)Cc1ccc2c(c1)OCO2 (centres unmarked) [MDMA, 3,4-methylenedioxymethamphetamine]
[4]; compared to 100% for methamphetamine
  cross-reactivity, single Cozart methamphetamine kit: 43–49%
[4]
  cross-reactivity, Cozart Methamphetamine and MDMA: 100%
[5]
  cross-reactivity, Cozart methamphetamine EIA: 758–1250%
  cross-reactivity, Cozart Methamphetamine: 100%
[6]
  cross-reactivity, Cozart MDMA: 100%
[3]; Conjugate 7 (hapten 7-HRP)
  IC50 (standard concentration which produces 50% B/B0): 0.017 µg/mL (≈ 0.088 µM)
[3]; Conjugate 7 (hapten 7-HRP), standard concentration 1 ng/ml
  % B/B0: 83.4%
[3]; Conjugate 7 (hapten 7-HRP), standard concentration 10 ng/ml
  % B/B0: 58%
[3]; Conjugate 7 (hapten 7-HRP), standard concentration 50 ng/ml
  % B/B0: 34.7%
[3]; Conjugate 7 (hapten 7-HRP), standard concentration 100 ng/ml
  % B/B0: 26%
[3]; Conjugate 7 (hapten 7-HRP), standard concentration 250 ng/ml
  % B/B0: 15.9%
[3]; Conjugate 7 (hapten 7-HRP), standard concentration 500 ng/ml
  % B/B0: 10.9%
[3]; Conjugate 7 (hapten 7-HRP), standard concentration 1000 ng/ml
  % B/B0: 7.5%
[3]; Conjugate 10 (hapten 10-HRP)
  IC50 (standard concentration which produces 50% B/B0): 0.0236 µg/mL (≈ 0.122 µM)
[3]; Conjugate 10 (hapten 10-HRP), standard concentration 1 ng/ml
  % B/B0: 86.1%
[3]; Conjugate 10 (hapten 10-HRP), standard concentration 10 ng/ml
  % B/B0: 59.3%
[3]; Conjugate 10 (hapten 10-HRP), standard concentration 50 ng/ml
  % B/B0: 34.4%
[3]; Conjugate 10 (hapten 10-HRP), standard concentration 100 ng/ml
  % B/B0: 28.3%
[3]; Conjugate 10 (hapten 10-HRP), standard concentration 250 ng/ml
  % B/B0: 19.6%
[3]; Conjugate 10 (hapten 10-HRP), standard concentration 500 ng/ml
  % B/B0: 14.4%
[3]; Conjugate 10 (hapten 10-HRP), standard concentration 1000 ng/ml
  % B/B0: 8.97%
[3]; Trial 1
  IC50: 0.017 µg/mL (≈ 0.088 µM)
  % CR (cross-reactivity = IC50MDMA/IC50CR x 100): 100%
[3]; Trial 2
  IC50: 0.03 µg/mL (≈ 0.155 µM)
  % CR (cross-reactivity = IC50MDMA/IC50CR x 100): 100%
[7]
  cross-reactivity, Cozart Amphetamine: 100%
[1]; compared to 100% for D-methamphetamine
  cross-reactivity, CEDIA: 69%
[1]; [9]
  cross-reactivity, CEDIA: 100%
[2]; compared to 100% for D,L-methamphetamine
  cross-reactivity, Emit: 14.3%
[2]; [9]
  cross-reactivity, Emit: 100%
[8]
  excreted unchanged in urine: 65%

## (+)-Pseudoephedrine
[3]; Trial 1
  IC50: >100 µg/mL
  % CR (cross-reactivity = IC50MDMA/IC50CR x 100): <0.017%

## (−)-Pseudoephedrine
[3]; Trial 1
  IC50: >100 µg/mL
  % CR (cross-reactivity = IC50MDMA/IC50CR x 100): <0.017%
